The numbers were not newly measured in patent US20180235982A1, “Treatment for Spirochete borne illness” (priority 2017, published 2018), which cites them from elsewhere.

For the data set the following is noted: no species, matrix or method given.

By half-life is commonly meant how long it takes for the measured level to halve. Consider `CN(C)c1ccc(O)c2c1C[C@H]1C[C@H]3[C@H](N(C)C)C(O)=C(C(N)=O)C(=O)[C@@]3(O)C(O)=C1C2=O` [Minocycline], for which the half-life was 12 to 14 h.
